{"source": "patent US7842805B2", "about": "“Pharmaceutical compounds as activators of caspases and inducers of apoptosis and the use thereof” (Myrexis, Inc., priority 2005, dated 2010)", "key": {"T-47D [1]": {"system": "T-47D", "assay": "Caspase cascade activation assay (Ac-DEVD-R110 fluorogenic substrate)", "format": "cell-based, Human", "conditions": "T-47D (24 hr); for EC50: Homo sapiens, T47D, read-out: Caspase potency EC50; for Caspase activity (Ratio): ratio of net RFU of test compound to control", "description": "Human breast cancer cell lines T-47D and DLD-1 were grown according to media component mixtures designated by American Type Culture Collection+10% FCS (Invitrogen Corporation), in a 5% CO2-95% humidity incubator at 37° C. T-47D and DLD-1 cells were maintained at a cell density between 50 and 80% confluency at a cell density of 0.1 to 0.6×10^6 cells/mL. Cells were harvested at 600×g and resuspended at 0.65×10^6 cells/mL into appropriate media+10% FCS. An aliquot of 22.5 μL of cells was added to a well of a 384-well microtiter plate containing 2.5 μL of a 10% DMSO in RPMI-1640 media solution containing 0.16 to 100 μM of benzo[d][1,2,3]triazin-4-yl-(4-methoxyphenyl)-methyl-amine or other test compound (0.016 to 10 μM final). An aliquot of 22.5 μL of cells was added to a well of a 384-well microtiter plate containing 2.5 μL of a 10% DMSO in RPMI-1640 media solution without test compound as the control sample. […] After incubation, the samples were removed from the incubator and 25 μL of a solution containing 14 μM of N—(Ac-DEVD)-N′-ethoxycarbonyl-R110 fluorogenic substrate (Cytovia, Inc.; WO99/18856), 20% sucrose (Sigma), 20 mM DTT (Sigma), 200 mM NaCl (Sigma), 40 mM Na PIPES buffer pH 7.2 (Sigma), and 500 μg/mL lysolecithin (Calbiochem) was added. The samples were mixed by agitation and incubated at room temperature. Using a fluorescent plate reader (Model SPECTRAfluor Plus, Tecan), an initial reading (T=0) was made approximately 1-2 min after addition of the substrate solution, employing excitation at 485 nm and emission at 530 nm, to determine the background fluorescence of the control sample. After the 3 h incubation, the samples were read for fluorescence as above (T=3 h).\nThe Relative Fluorescence Unit values (RFU) were used to calculate the sample readings as follows: RFU(T=3h)−Control RFU(T=0)=Net RFU(T=3h)\nThe activity of caspase cascade activation was determined by the ratio of the net RFU value for benzo[d][1,2,3]triazin-4-yl-(4-methoxy-phenyl)-methyl-amine or other test compounds to that of control samples. The EC50 (nM) was determined by a sigmoidal dose-response calculation (Prism 3.0, GraphPad Software Inc.)."}, "MX-1": {"system": "MX-1", "assay": "Inhibition of cell proliferation (GI50, CellTiter-Glo)", "format": "cell-based", "conditions": "Homo sapiens, MX1; MX-1 cells, 48 h", "description": "(§1) T-47D, HT29, H1299, MX-1 and MDAMB435 cells were grown and harvested as in Example 29. An aliquot of […] of cells (4.4×10^4 cells/mL) was added to a well of a 96-well microtiter plate containing 5 μL of a 10% DMSO in RPMI-1640 media solution containing 10 nM to 100 μM of benzo[d][1,2,3]triazin-4-yl-(4-methoxy-phenyl)methyl-amine (1 nM to 10 μM final). An aliquot of 45 μL of cells was added to a well of a 96-well microtiter plate containing 5 μL of a 10% DMSO in RPMI-1640 media solution without compound as the control sample for maximal cell proliferation (LMax). The samples were mixed by agitation and then incubated at 37° C. for 48 h in a 5% CO2-95% humidity incubator. After incubation, the samples were removed from the incubator and 25 μL of CellTiter-Glo™ reagent (Promega) was added. The samples were mixed by agitation and incubated at room temperature for 10-15 min. Plates were then read using a luminescent plate reader (Model SPECTRAfluor Plus, Tecan) to give Ltest values.\n(§2) Baseline for GI50 (dose for 50% inhibition of cell proliferation) of initial cell numbers was determined by adding an aliquot of 45 μL of cells or 45 μL of media, respectively, to wells of a 96-well microtiter plate containing 5 μL of a 10% DMSO in RPMI-1640 media solution. The samples were mixed by agitation and then incubated at 37° C. for 0.5 h in a 5% CO2-95% humidity incubator. After incubation, the samples were removed from the incubator and 25 μL of CellTiter-Glo™ reagent (Promega) was added. The samples were mixed by agitation and incubated at 37° C. for 10-15 min at room temperature in a 5% CO2-95% humidity incubator. Fluorescence was read as above, (Lstart) defining luminescence for initial cell number used as baseline in GI50 determinations.\n(§3) GI50 (dose for 50% inhibition of cell proliferation) is the concentration where [(LTest−Lstart)/(LMax−Lstart)]=0.5."}, "MDAMB435": {"system": "MDAMB435", "assay": "Inhibition of cell proliferation (GI50, CellTiter-Glo)", "format": "cell-based", "conditions": "Homo sapiens, MDA-MB-435; MDAMB435 cells, 48 h", "description": "as §1, §2, §3"}, "T-47D [2]": {"system": "T-47D", "assay": "Inhibition of cell proliferation (GI50, CellTiter-Glo)", "format": "cell-based", "conditions": "Homo sapiens, T47D; T-47D cells, 48 h", "description": "as §1, §2, §3"}, "HT29": {"system": "HT29", "assay": "Inhibition of cell proliferation (GI50, CellTiter-Glo)", "format": "cell-based", "conditions": "Homo sapiens, HT-29; HT29 cells, 48 h", "description": "as §1, §2, §3"}, "H1299": {"system": "H1299", "assay": "Inhibition of cell proliferation (GI50, CellTiter-Glo)", "format": "cell-based", "conditions": "Homo sapiens, NCI-H1299; H1299 cells, 48 h", "description": "as §1, §2, §3"}}}
{"smiles": "COc1ccc(N(C)c2nnnc3ccccc23)cc1", "note": "[Example 1, Benzo[d][1,2,3]triazin-4-yl-(4-methoxy-phenyl)-methyl-amine]", "values": [{"measurement": "EC50", "setting": "T-47D [1]", "value": 16, "unit": "nM"}, {"measurement": "Caspase activity (Ratio)", "setting": "T-47D [1]", "value": 9.3}, {"measurement": "GI50", "setting": "MX-1", "value": 50, "unit": "nM"}, {"measurement": "GI50", "setting": "MDAMB435", "value": 7, "unit": "nM"}, {"measurement": "GI50", "setting": "T-47D [2]", "value": 50, "unit": "nM"}, {"measurement": "GI50", "setting": "HT29", "value": 50, "unit": "nM"}, {"measurement": "GI50", "setting": "H1299", "value": 40, "unit": "nM"}]}
{"smiles": "COc1ccc(N(C)c2nncc3ccccc23)cc1", "note": "[Example 2, (4-Methoxy-phenyl)-methyl-phthalazin-1-yl-amine]", "values": [{"measurement": "EC50", "setting": "T-47D [1]", "value": 106, "unit": "nM"}, {"measurement": "Caspase activity (Ratio)", "setting": "T-47D [1]", "value": 11.1}, {"measurement": "GI50", "setting": "MX-1", "value": 52, "unit": "nM"}, {"measurement": "GI50", "setting": "MDAMB435", "value": 62, "unit": "nM"}, {"measurement": "GI50", "setting": "T-47D [2]", "value": 120, "unit": "nM"}, {"measurement": "GI50", "setting": "HT29", "value": 200, "unit": "nM"}, {"measurement": "GI50", "setting": "H1299", "value": 106, "unit": "nM"}]}
